Data as given in patent publication US4187216A, “Dipeptide derivatives” (Hoffmann-La Roche Inc., priority 1976, dated 1980).
Counter-ions that a name gives are not always drawn. Residues, ends and D or L forms follow the SMILES beside them. *: point of attachment. pNA = O=[N+]([O-])c1ccc(N*)cc1; Tos = Cc1ccc(S(=O)(=O)*)cc1; Hexanoyl = CCCCCC(=O)*; Propionyl = CCC(=O)*; Tfa = O=C(C(F)(F)F)*; NHPh = c1ccc(N*)cc1

target: T1, human granulocyte elastase (Homo sapiens, UniProt P08246); assay: in vitro elastase inhibition, test method of Visser and Blout, human granulocyte elastase as enzyme; assay type: biochemical; conditions: read-out: I50, concentration which gives 50% inhibition of the human granulocyte elastase
T1 sequence (P08246 30-267): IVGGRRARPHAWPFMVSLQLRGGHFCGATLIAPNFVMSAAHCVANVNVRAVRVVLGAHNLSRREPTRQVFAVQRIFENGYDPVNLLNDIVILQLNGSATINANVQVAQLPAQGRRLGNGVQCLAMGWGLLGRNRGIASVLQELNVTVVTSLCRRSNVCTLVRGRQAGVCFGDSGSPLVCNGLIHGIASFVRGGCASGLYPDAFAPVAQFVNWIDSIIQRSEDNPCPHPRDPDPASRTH
Excerpt: Acta 268 (1972) 257, using human granulocyte elastase as the enzyme. The results obtained with representative dipeptide derivatives of formula I in this test are given in Table I hereinafter, the I50 being the concentration in millimoles per liter which gives 50% inhibition of the human granulocyte elastase: […]

IC50 [µM] | SMILES
800 | CCCCCC(=O)N[C@@H](C)C(=O)N1CCC[C@H]1C(=O)Nc1ccccc1 [(N-Hexanoyl-L-alanyl-L-proline) anilide, N-Hexanoyl-L-alanyl-L-proline anilide] (Hexanoyl-Ala-Pro-NHPh)
60 | C[C@H](NC(=O)CC12CC3CC(CC(C3)C1)C2)C(=O)N1CCC[C@H]1C(=O)Nc1ccccc1 [N-(1-Adamantylacetyl)-L-alanyl-L-proline anilide]
600 | C[C@H](NC(=O)C12CC3CC(CC(C3)C1)C2)C(=O)N1CCC[C@H]1C(=O)Nc1ccccc1 [N-(1-Adamantylcarbonyl)-L-alanyl-L-proline anilide]
7 | C[C@H](NS(=O)(=O)C12CC3CC(CC(C3)C1)C2)C(=O)N1CCC[C@H]1C(=O)Nc1ccccc1 [N-(1-Adamantylsulphonyl)-L-alanyl-L-proline anilide]
60 | Cc1ccc(S(=O)(=O)N[C@@H](C)C(=O)N2CCC[C@H]2C(=O)Nc2ccccc2)cc1 [N-(p-Toluenesulphonyl)-L-alanyl-L-proline anilide] (Tos-Ala-Pro-NHPh)
1000 | C[C@H](NC(=O)OCc1ccccc1)C(=O)N1CCC[C@H]1C(=O)NC1CCCCC1 [N-Benzyloxycarbonyl-L-alanyl-L-proline cyclohexylamide]
~5000 | CCCCCNC(=O)[C@@H]1CCCN1C(=O)[C@H](C)NC(=O)OCc1ccccc1 [N-Benzyloxycarbonyl-L-alanyl-L-proline n-pentylamide]

target: porcine pancreatic elastase (Sus scrofa, UniProt P00772); assay: in vitro elastase inhibition, test method of Visser and Blout, porcine pancreatic elastase as enzyme; assay type: biochemical; conditions: read-out: Ki, inhibitor constant
Sequence (P00772 27-266): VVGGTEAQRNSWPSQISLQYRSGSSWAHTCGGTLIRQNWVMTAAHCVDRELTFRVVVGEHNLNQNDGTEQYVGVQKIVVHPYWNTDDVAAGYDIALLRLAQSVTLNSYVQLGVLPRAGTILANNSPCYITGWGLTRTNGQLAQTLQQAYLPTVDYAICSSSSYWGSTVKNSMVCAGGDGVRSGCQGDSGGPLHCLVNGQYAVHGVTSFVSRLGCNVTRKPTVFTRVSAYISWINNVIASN

Ki [µM] | SMILES
40 | CCC(=O)N[C@@H](C)C(=O)N[C@@H](C)C(=O)Nc1ccccc1 [N-Propionyl-L-alanyl-L-alanine anilide] (Propionyl-Ala-Ala-NHPh)
26 | CCC(=O)N[C@@H](C)C(=O)N1CCC[C@H]1C(=O)Nc1ccc([N+](=O)[O-])cc1 [N-Propionyl-L-alanyl-L-proline 4-nitroanilide] (Propionyl-Ala-Pro-pNA)
40 | CCC(=O)N[C@@H](C)C(=O)N1CCC[C@H]1C(=O)Nc1ccccc1 [N-Propionyl-L-alanyl-L-proline anilide] (Propionyl-Ala-Pro-NHPh)
20 | CCC(=O)N[C@@H](C)C(=O)N1CCC[C@H]1C(=O)NC1CCCCC1 [N-Propionyl-L-alanyl-L-proline cyclohexylamide]
1.4 | C[C@H](NC(=O)C(F)(F)F)C(=O)N1CCC[C@H]1C(=O)Nc1ccccc1 [N-Trifluoroacetyl-L-alanyl-L-proline anilide] (Tfa-Ala-Pro-NHPh)
